For 29 compounds, EC50 results are on record in patent US10336739B2, “4-hydroxy-3-(heteroaryl)pyridine-2-one APJ agonists” (BRISTOL-MYERS SQUIBB COMPANY, priority 2015, dated 2019).

Chain of human APJ receptor (P35414 whole entry): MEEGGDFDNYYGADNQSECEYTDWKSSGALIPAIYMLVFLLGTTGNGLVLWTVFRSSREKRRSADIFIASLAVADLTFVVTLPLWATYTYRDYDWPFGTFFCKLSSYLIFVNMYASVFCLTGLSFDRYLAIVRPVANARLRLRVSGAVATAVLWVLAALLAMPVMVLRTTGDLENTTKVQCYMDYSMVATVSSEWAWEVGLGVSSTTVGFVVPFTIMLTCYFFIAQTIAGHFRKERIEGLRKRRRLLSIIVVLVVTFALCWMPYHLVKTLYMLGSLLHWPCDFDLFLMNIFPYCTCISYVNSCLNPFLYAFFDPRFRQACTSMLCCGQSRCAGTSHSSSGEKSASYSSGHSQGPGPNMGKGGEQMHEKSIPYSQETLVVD

The target in the test is human APJ receptor (Homo sapiens (Human), UniProt P35414). In words: Intracellular cAMP accumulation assay (APJ hcAMP, HTRF). It counts as cell-based. The conditions noted are these: HEK293 cells stably expressing human APJ receptor; inhibition of forskolin-mediated cAMP production; read-out: hAPJ cAMP EC50 Potency range. On the procedure:
Intracellular cAMP Accumulation Assay
HEK293 cells stably expressing human APJ receptor were used to assess the activity of compounds. Cultured cells were detached and resuspended in the cAMP Homogeneous Time-Resolved Fluorescence (HTRF) assay buffer (Cisbio cat; #62AM4PEJ). The assay was performed in 384-well assay plates (Perkin-Elmer; cat #6008289) according to assay protocol provided by the manufacturer. Serial dilutions of a compound together with assay buffer containing […] and 2 μM forskolin were added to each well containing 5,000 cells and incubated for 30 minutes at room temperature. Subsequently, cAMP D2 reagent was added in the lysis buffer followed by the EuK antibody (Cisbio; cat #62AM4PEJ) and incubated for 60 min. The fluorescence emission ratio was measured using fluorometer. The intracellular cAMP concentrations (compound-stimulated inhibition of forskolin-mediated cAMP production) were calculated by extrapolation from a standard curve using known cAMP concentrations. The EC50 values were obtained by fitting the data to a sigmoidal concentration-response curve with variable slope.
(cAMP levels reflect the balance of adenylyl cyclase and phosphodiesterase activity.)
For orientation: EC50 means the concentration giving half of the maximal effect. For `CCCCc1nc(O)c(-c2nnc(Cc3cc(F)cc(C(F)(F)F)c3)o2)c(O)c1-c1c(OC)cccc1OC` [Example 57, 6-butyl-5-(2,6-dimethoxyphenyl)-3-(5-{[3-fluoro-5-(trifluoromethyl)phenyl]methyl}-1,3,4-oxadiazol-2-yl)pyridine-2,4-diol], the EC50 was 10 to 100 nM.
Turning to `CCCCc1nc(O)c(-c2nnc(CCc3nc4ccccc4n3C)o2)c(O)c1-c1c(OC)cccc1OC` [Example 58, 6-butyl-5-(2,6-dimethoxyphenyl)-3-{5-[2-(1-methyl-1H-1,3-benzodiazol-2-yl)ethyl]-1,3,4-oxadiazol-2-yl}pyridine-2,4-diol], the half-maximal effective concentration (EC50) lay within 0.01 to 10 nM.
In the case of `CCCCc1nc(O)c(-c2nnc(Cc3ccnc(Cl)c3)o2)c(O)c1-c1c(OC)cccc1OC` [Example 59, 6-butyl-3-{5-[(2-chloropyridin-4-yl)methyl]-1,3,4-oxadiazol-2-yl}-5-(2,6-dimethoxyphenyl) pyridine-2,4-diol] it was 0.01 to 10 nM.
For the compound `CCCCc1nc(O)c(-c2nnc(CCc3nc(-c4ccc(OC)cc4)no3)o2)c(O)c1-c1c(OC)cccc1OC` [Example 60, 6-butyl-5-(2,6-dimethoxyphenyl)-3-(5-{2-[3-(4-methoxyphenyl)-1,2,4-oxadiazol-5-yl]ethyl}-1,3,4-oxadiazol-2-yl)pyridine-2,4-diol], the half-maximal effective concentration (EC50) lay within 10 to 100 nM.
Next, `CCCCc1nc(O)c(-c2nnc(C3NCCc4ccccc43)o2)c(O)c1-c1c(OC)cccc1OC` (centres unmarked) [Example 61, 6-butyl-5-(2,6-dimethoxyphenyl)-3-[5-(1,2,3,4-tetra-hydroisoquinolin-1-yl)-1,3,4-oxadiazol-2-yl]pyridine-2,4-diol]: 0.01 to 10 nM; `CCCCc1nc(O)c(-c2nnc(C(C)(C)c3ccc(Cl)c(Cl)c3)o2)c(O)c1-c1c(OC)cccc1OC` [Example 62, 6-butyl-3-{5-[2-(3,4-dichlorophenyl)propan-2-yl]-1,3,4-oxadiazol-2-yl}-5-(2,6-dimethoxyphenyl) pyridine-2,4-diol]: 0.01 to 10 nM; `CCCCc1nc(O)c(-c2nnc(Cc3nnn(C)n3)o2)c(O)c1-c1c(OC)cccc1OC` [Example 63, 6-butyl-5-(2,6-dimethoxyphenyl)-3-{5-[(2-methyl-2H-1,2,3,4-tetrazol-5-yl)methyl]-1,3,4-oxadiazol-2-yl}pyridine-2,4-diol]: 0.01 to 10 nM.
Next, `CCCCc1nc(O)c(-c2nnc(C(C)(C)Cc3ccccc3)o2)c(O)c1-c1c(OC)cccc1OC` [Example 64, 6-butyl-5-(2,6-dimethoxyphenyl)-3-[5-(2-methyl-1-phenylpropan-2-yl)-1,3,4-oxadiazol-2-yl]pyridine-2,4-diol]: 0.01 to 10 nM; `CCCCc1nc(O)c(-c2nnc(COc3ccc(C(F)(F)F)cc3)o2)c(O)c1-c1c(OC)cccc1OC` [Example 65, 6-butyl-5-(2,6-dimethoxyphenyl)-3-{5-[4-(trifluoromethyl)phenoxymethyl]-1,3,4-oxadiazol-2-yl}pyridine-2,4-diol]: 10 to 100 nM; `CCCCc1nc(O)c(-c2nnc(Cc3nnc(-c4ccccc4)[nH]3)o2)c(O)c1-c1c(OC)cccc1OC` [Example 66, 6-butyl-5-(2,6-dimethoxyphenyl)-3-{5-[(5-phenyl-4H-1,2,4-triazol-3-yl)methyl]-1,3,4-oxadiazol-2-yl}pyridine-2,4-diol]: 0.01 to 10 nM.
Next, `CCCCc1nc(O)c(-c2nnc(CC3CCCCC3)o2)c(O)c1-c1c(OC)cccc1OC` [Example 67, 6-butyl-3-[5-(cyclohexylmethyl)-1,3,4-oxadiazol-2-yl]-5-(2,6-dimethoxyphenyl) pyridine-2,4-diol]: 0.01 to 10 nM; `CCCCc1nc(O)c(-c2nnc(CCc3ccc(Cl)cc3)o2)c(O)c1-c1c(OC)cccc1OC` [Example 68, 6-butyl-3-{5-[2-(4-chlorophenyl)ethyl]-1,3,4-oxadiazol-2-yl}-5-(2,6-dimethoxyphenyl) pyridine-2,4-diol]: 0.01 to 10 nM; `CCCCc1nc(O)c(-c2nnc(CC3CCOCC3)o2)c(O)c1-c1c(OC)cccc1OC` [Example 69, 6-butyl-5-(2,6-dimethoxyphenyl)-3-[5-(oxan-4-ylmethyl)-1,3,4-oxadiazol-2-yl]pyridine-2,4-diol]: 10 to 100 nM.
Turning to `CCCCc1nc(O)c(-c2nnc(Cc3ccc(F)c(Cl)c3)o2)c(O)c1-c1c(OC)cccc1OC` [Example 70, 6-butyl-3-{5-[(3-chloro-4-fluorophenyl)methyl]-1,3,4-oxadiazol-2-yl}-5-(2,6-dimethoxyphenyl) pyridine-2,4-diol], the EC50 lay in the range of 0.01 to 10 nM.
Next, `CCCCc1nc(O)c(-c2nnc(Cc3ccc(Cl)c(F)c3)o2)c(O)c1-c1c(OC)cccc1OC` [Example 71, 6-butyl-3-{5-[(4-chloro-3-fluorophenyl)methyl]-1,3,4-oxadiazol-2-yl}-5-(2,6-dimethoxyphenyl) pyridine-2,4-diol]: 0.01 to 10 nM.
`CCCCc1nc(O)c(-c2nnc(CCc3nccs3)o2)c(O)c1-c1c(OC)cccc1OC` [Example 72, 6-butyl-5-(2,6-dimethoxyphenyl)-3-{5-[2-(1,3-thiazol-2-yl)ethyl]-1,3,4-oxadiazol-2-yl}pyridine-2,4-diol]: the half-maximal effective concentration (EC50) is 0.01 to 10 nM.
In the case of `CCCCc1nc(O)c(-c2nnc(Cc3cccc(C(F)(F)F)c3)o2)c(O)c1-c1c(OC)cccc1OC` [Example 73, 6-butyl-5-(2,6-dimethoxyphenyl)-3-(5-{[3-(trifluoromethyl)phenyl]methyl}-1,3,4-oxadiazol-2-yl)pyridine-2,4-diol] it was 10 to 100 nM.
Regarding `CCCCc1nc(O)c(-c2nnc(CCc3ccc(F)c(F)c3)o2)c(O)c1-c1c(OC)cccc1OC` [Example 74, 6-butyl-3-{5-[2-(3,4-difluorophenyl)ethyl]-1,3,4-oxadiazol-2-yl}-5-(2,6-dimethoxyphenyl) pyridine-2,4-diol], the concentration for a half-maximal effect (EC50) lay in the range of 0.01 to 10 nM.
Next, `CCCCc1nc(O)c(-c2nnc(CCc3ccc(C(F)(F)F)cc3)o2)c(O)c1-c1c(OC)cccc1OC` [Example 75, 6-butyl-5-(2,6-dimethoxyphenyl)-3-(5-{2-[4-(trifluoromethyl)phenyl]ethyl}-1,3,4-oxadiazol-2-yl)pyridine-2,4-diol]: 10 to 100 nM.
In the case of `CCCCc1nc(O)c(-c2nnc(COc3ccc(F)c(F)c3)o2)c(O)c1-c1c(OC)cccc1OC` [Example 76, 6-butyl-3-[5-(3,4-difluorophenoxy-methyl)-1,3,4-oxadiazol-2-yl]-5-(2,6-dimethoxyphenyl) pyridine-2,4-diol] it was 10 to 100 nM; in that of `CCCCc1nc(O)c(-c2nnc(CCc3nc(-c4ccccc4)no3)o2)c(O)c1-c1c(OC)cccc1OC` [Example 77, 6-butyl-5-(2,6-dimethoxyphenyl)-3-{5-[2-(3-phenyl-1,2,4-oxadiazol-5-yl)ethyl]-1,3,4-oxadiazol-2-yl}pyridine-2,4-diol], 10 to 100 nM; in that of `CCCCc1nc(O)c(-c2nnc(Cc3cnn(-c4ccccc4)c3)o2)c(O)c1-c1c(OC)cccc1OC` [Example 78, 6-butyl-5-(2,6-dimethoxyphenyl)-3-{5-[(1-phenyl-1H-pyrazol-4-yl)methyl]-1,3,4-oxadiazol-2-yl}pyridine-2,4-diol], 10 to 100 nM.
Next, `CCCCc1nc(O)c(-c2nnc(Cc3csc(C)n3)o2)c(O)c1-c1c(OC)cccc1OC` [Example 79, 6-butyl-5-(2,6-dimethoxyphenyl)-3-{5-[(2-methyl-1,3-thiazol-4-yl)methyl]-1,3,4-oxadiazol-2-yl}pyridine-2,4-diol]: 0.01 to 10 nM; `CCCCc1nc(O)c(-c2nnc(Cc3ccc(C(F)(F)F)cc3)o2)c(O)c1-c1c(OC)cccc1OC` [Example 80, 6-butyl-5-(2,6-dimethoxyphenyl)-3-(5-{[4-(trifluoromethyl)phenyl]methyl}-1,3,4-oxadiazol-2-yl)pyridine-2,4-diol]: 0.01 to 10 nM.
On to `CCCCc1nc(O)c(-c2nnc(CCc3ncccn3)o2)c(O)c1-c1c(OC)cccc1OC` [Example 81, 6-butyl-5-(2,6-dimethoxyphenyl)-3-{5-[2-(pyrimidin-2-yl)ethyl]-1,3,4-oxadiazol-2-yl}pyridine-2,4-diol], for which the EC50 fell in the range of 0.01 to 10 nM.
In the case of `CCCCc1nc(O)c(-c2nnc(CCc3nc4ccccc4s3)o2)c(O)c1-c1c(OC)cccc1OC` [Example 82, 3-{5-[2-(1,3-benzothiazol-2-yl)ethyl]-1,3,4-oxadiazol-2-yl}-6-butyl-5-(2,6-dimethoxyphenyl) pyridine-2,4-diol] it was 0.01 to 10 nM; in that of `CCCCc1nc(O)c(-c2nnc(CCc3nc(-c4ccccn4)no3)o2)c(O)c1-c1c(OC)cccc1OC` [Example 83, 6-butyl-5-(2,6-dimethoxyphenyl)-3-(5-{2-[3-(pyridin-2-yl)-1,2,4-oxadiazol-5-yl]ethyl}-1,3,4-oxadiazol-2-yl)pyridine-2,4-diol], 0.01 to 10 nM.
Take `CCCCc1nc(O)c(-c2nnc(Cc3nc(-c4ccccc4)sc3C)o2)c(O)c1-c1c(OC)cccc1OC` [Example 84, 6-butyl-5-(2,6-dimethoxyphenyl)-3-{5-[(5-methyl-2-phenyl-1,3-thiazol-4-yl)methyl]-1,3,4-oxadiazol-2-yl}pyridine-2,4-diol]: the EC50 lay within 0.01 to 10 nM.
Regarding `CCCCc1nc(O)c(-c2nnc(CCc3ccc(Cl)c(Cl)c3)o2)c(O)c1-c1c(OC)cccc1OC` [Example 85, 6-butyl-3-{5-[2-(3,4-dichlorophenyl)ethyl]-1,3,4-oxadiazol-2-yl}-5-(2,6-dimethoxyphenyl) pyridine-2,4-diol], the half-maximal effective concentration (EC50) was in the range of 10 to 100 nM.
